Measured values: US20260234144A1 (TAY THERAPEUTICS LIMITED, priority 2023, published 2026)

System: R223X stop codon in the mutated luciferase gene, ADXC8 luciferase reporter cell line
Assay: cells
Format: cell-based
Conditions: ADXC8 cells, 24 hours; for EC (100% of 200 uM G418 response) / Emax: 24 h; for EC (100% of 200 uM G418 response): read-out: pC100%, negative logarithm of the concentration giving the same response as 200 μM G418; for Emax: read-out: Fold Over Control, maximum fold response relative to 200 μM G418

COc1ccc(-c2ccc3c(N)nc(NC4CCN(C)CC4)nc3n2)cc1 [Example 24, 7-(4-methoxyphenyl)-N^2-(1-methylpiperidin-4-yl)pyrido[2,3-d]pyrimidine-2,4-diamine]
EC (100% of 200 uM G418 response): 1 to 10 µM

Cc1c2c(nc3nc(NC4CCN(Cc5cnccc5O)CC4)nc(N)c13)CCC2 [Example 663]
Emax: 100 to 3000%
EC (100% of 200 uM G418 response): 1 to 10 µM

CNc1nc(N[C@@H]2CCNC2)nc2nc(C)cc(C)c12 [Example 294]
EC (100% of 200 uM G418 response): 0.1 to 1 µM

CNc1cc(N[C@H]2CN(C)C[C@@H]2OC)nc2nc3c(c(C)c12)CCC3 [Example 421]
Emax: 100 to 3000%
EC (100% of 200 uM G418 response): 0.1 to 1 µM

CN1CCC(Nc2nc(N)c3ccc(-c4ccc(C#N)cc4)nc3n2)CC1 [Example 95]
EC (100% of 200 uM G418 response): 10 to 100 µM

CNc1nc(N[C@@H]2C[C@@H](C)N(C)C2)nc2nc(C)cc(C)c12 [Example 375]
Emax: 100 to 3000%
EC (100% of 200 uM G418 response): 0.1 to 1 µM

Cc1nc2nc(NC3CCN(C)CC3)nc(N)c2cc1Br [Example 21, 6-bromo-7-methyl-N-(1-methylpiperidin-4-yl)pyrido[2,3-d]pyrimidine-2,4-diamine]
Emax: 100 to 3000%
EC (100% of 200 uM G418 response): 1 to 10 µM

Cc1nc2nc(NC34CCN(CC3)CC4)nc(N)c2c2c1CCC2 [Example 272]
Emax: 100 to 3000%
EC (100% of 200 uM G418 response): 0.1 to 1 µM

CN1CCC(Nc2nc(N)c3ccc(-c4ccccc4CO)nc3n2)CC1 [Example 89]
EC (100% of 200 uM G418 response): 10 to 100 µM

CN1CCC(Nc2nc(N)c3ccc(-c4cccc(S(N)(=O)=O)c4)nc3n2)CC1 [Example 55]
Emax: 100 to 3000%
EC (100% of 200 uM G418 response): 10 to 100 µM

Cc1cc(C)c2c(N)nc(NCCN(C)C)nc2n1 [Example 142, N^2-(2-(dimethylamino)ethyl)-5,7-dimethylpyrido[2,3-d]pyrimidine-2,4-diamine]
EC (100% of 200 uM G418 response): 1 to 10 µM

Cc1nc2nc(NC3CCN(C)CC3)nc(N)c2c(C)c1-c1cnn(C)c1 [Example 678]
Emax: 0 to 100%
EC (100% of 200 uM G418 response): > 100 µM

Cc1nc2nc(NC3CCN(C)CC3)nc(N)c2cc1-c1cnn(C)c1 [Example 677]
Emax: 0 to 100%
EC (100% of 200 uM G418 response): > 100 µM

CN1CCC(Nc2nc(N)c3cc(-c4ncco4)cnc3n2)CC1 [Example 645]
Emax: 0 to 100%
EC (100% of 200 uM G418 response): > 100 µM

CNc1nc(NC2C3CCC2CN(C)C3)nc2nc(C)cc(C)c12 (single isomer, unassigned) [Example 433]
Emax: 100 to 3000%
EC (100% of 200 uM G418 response): 1 to 10 µM

CN1CCC(Nc2nc(N)c3ccc(-c4ccc(C(=O)N(C)C)cc4)nc3n2)CC1 [Example 71]
Emax: 0 to 100%
EC (100% of 200 uM G418 response): > 100 µM

Cc1cc(C)c2c(N)nc(N[C@@H]3CCCCNC3)nc2n1 [Example 313]
Emax: 100 to 3000%
EC (100% of 200 uM G418 response): 1 to 10 µM

Cc1cc(C)c2c(N)cc(NCCCN3CCOCC3)nc2n1 [Example 300]
Emax: 100 to 3000%
EC (100% of 200 uM G418 response): 1 to 10 µM

CNc1nc(N[C@@H]2C[C@H](O)CN(C)C2)nc2nc(C)cc(C)c12 [Example 603]
Emax: 100 to 3000%
EC (100% of 200 uM G418 response): 1 to 10 µM

CNc1nc(N[C@H]2CN[C@H](C)C2)nc2nc(C)cc(C)c12 [Example 376]
EC (100% of 200 uM G418 response): 0.1 to 1 µM

Cc1cc(C)c2c(N)nc(NC3CCN(Cc4cccc(C(F)F)c4)CC3)nc2n1 [Example 489]
Emax: 100 to 3000%
EC (100% of 200 uM G418 response): 1 to 10 µM

COc1cccc(CN2CCC(Nc3nc(N)c4c(C)cc(C)nc4n3)CC2)c1 [Example 494]
Emax: 100 to 3000%
EC (100% of 200 uM G418 response): 1 to 10 µM

COc1cnc2nc(NC3CCN(C)CC3)nc(N)c2c1 [Example 241, 6-methoxy-N^2-(1-methylpiperidin-4-yl)pyrido[2,3-d]pyrimidine-2,4-diamine]
Emax: 0 to 100%
EC (100% of 200 uM G418 response): > 31.6 µM

CC(O)c1cnc2nc(NC3CCN(C)CC3)nc(N)c2c1 (stereo not shown) [Example 126, 1-{4-amino-2-[(1-methylpiperidin-4-yl)amino]pyrido[2,3-d]pyrimidin-6-yl}ethanol]
Emax: 0 to 100%
EC (100% of 200 uM G418 response): > 100 µM

Cc1cc(C)c2c(N)nc(NCCCN3CC(F)C3)nc2n1 [Example 186]
Emax: 100 to 3000%
EC (100% of 200 uM G418 response): 10 to 100 µM

CNc1nc(NC23CCCN(CC2)C3)nc2nc(C)cc(C)c12 (stereo not shown) [Example 416]
Emax: 0 to 100%
EC (100% of 200 uM G418 response): > 31.6 µM

CN1CCC(Nc2nc(N)c3ccc(-c4cc(F)ccc4F)nc3n2)CC1 [Example 69]
Emax: 100 to 3000%
EC (100% of 200 uM G418 response): 1 to 10 µM

CN1CCC(Nc2nc(N)c3cc(-c4ccn[nH]4)cnc3n2)CC1 [Example 646]
Emax: 0 to 100%
EC (100% of 200 uM G418 response): > 100 µM

Cc1cc(C)c2c(N)nc(N[C@H]3CN[C@H](C)C3)nc2n1 [Example 209]
Emax: 100 to 3000%
EC (100% of 200 uM G418 response): 1 to 10 µM

CNc1nc(NC2CN3CCC2C3)nc2nc(C)cc(C)c12 (stereo not shown) [Example 449]
Emax: 0 to 100%
EC (100% of 200 uM G418 response): > 31.6 µM

C=C(C)c1cnc2nc(NC3CCN(C)CC3)nc(N)c2c1 [Example 397]
Emax: 100 to 3000%
EC (100% of 200 uM G418 response): 1 to 10 µM

CNc1nc(NC2CCN(Cc3ccccc3)CC2)nc2nc3c(c(C)c12)CCC3 [Example 605]
Emax: 100 to 3000%
EC (100% of 200 uM G418 response): 0.1 to 1 µM

CNc1nc(N[C@H]2CN(C)C[C@H]2F)nc2nc(C)c3c(c12)CCC3 [Example 366]
Emax: 100 to 3000%
EC (100% of 200 uM G418 response): 0.1 to 1 µM

CNc1nc(NC2CNCC23COC3)nc2nc(C)cc(C)c12 (stereo not shown) [Example 410]
Emax: 0 to 100%
EC (100% of 200 uM G418 response): > 31.6 µM

CNc1cc(N[C@H]2CNC[C@H]2OC)nc2nc3c(c(C)c12)CCC3 [Example 617]
Emax: 100 to 3000%
EC (100% of 200 uM G418 response): 1 to 10 µM

CNc1nc(N[C@@H]2C[C@@H]3CC[C@H]2N3C)nc2nc(C)cc(C)c12 [Example 368]
Emax: 100 to 3000%
EC (100% of 200 uM G418 response): 1 to 10 µM

CNc1nc(NCC23CCC[C@H]2N(C)CC3)nc2nc(C)cc(C)c12 (stereo partly shown) [Example 405]
Emax: 100 to 3000%
EC (100% of 200 uM G418 response): 1 to 10 µM

Cc1cc(C)c2c(N)nc(NCCCNCC(F)F)nc2n1 [Example 193]
Emax: 100 to 3000%
EC (100% of 200 uM G418 response): 10 to 100 µM

Cc1cc(C)c2c(N)nc(NC3CCN(Cc4cccc(C)c4O)CC3)nc2n1 [Example 539]
Emax: 100 to 3000%
EC (100% of 200 uM G418 response): 0.1 to 1 µM

CNc1nc(NC2CN(C)CC23CC3)nc2nc(C)cc(C)c12 (stereo not shown) [Example 408]
EC (100% of 200 uM G418 response): 1 to 10 µM

Cc1cc(C)c2c(N)nc(N[C@@H]3CCN(CCO)C3)nc2n1 [Example 224, (R)-2-(3-((4-amino-5,7-dimethylpyrido[2,3-d]pyrimidin-2-yl)amino)pyrrolidin-1-yl)ethan-1-ol]
Emax: 100 to 3000%
EC (100% of 200 uM G418 response): 10 to 100 µM

Cc1cc(C)c2c(N)nc(NC3CCN(Cc4c(Cl)cccc4Cl)CC3)nc2n1 [Example 470]
Emax: 100 to 3000%
EC (100% of 200 uM G418 response): 1 to 10 µM

Cc1cc(C)c2c(NC3CCC3)nc(NC3CCN(C)CC3)nc2n1 [Example 321]
Emax: 0 to 100%
EC (100% of 200 uM G418 response): > 31.6 µM

CC#Cc1ccc2c(N)nc(NC3CCN(C)CC3)nc2n1 [Example 283]
EC (100% of 200 uM G418 response): 1 to 10 µM

CNc1nc(NC2CNCC2C#N)nc2nc(C)cc(C)c12 (single isomer, unassigned) [Example 452]
Fold Over Control (maximum fold response relative to 200 μM G418): ## (Fold over Ctrl > 1 ≤ 30)
pC100% (negative logarithm of the concentration giving the same response as 200 μM G418): + (pC100% > 4.0 ≤ 5.0)

Cc1cc(C)c2c(N)nc(NC3CCNCC3)nc2n1 [Example 279]
Emax: 100 to 3000%
EC (100% of 200 uM G418 response): 1 to 10 µM

Cc1cc(C)c2c(N)nc(NC3CC(C)(C)N(C)C(C)(C)C3)nc2n1 [Example 171]
Emax: 100 to 3000%
EC (100% of 200 uM G418 response): 10 to 100 µM

Cc1cc(C)c2c(N)nc(N[C@@H]3CCN(Cc4ccc(C#N)cc4)C[C@@H]3O)nc2n1 [Example 562]
Emax: 100 to 3000%
EC (100% of 200 uM G418 response): 1 to 10 µM

Cc1nc2nc(NC3CCN(C)CC3)nc(N)c2c(C)c1Cl [Example 130, 6-chloro-5,7-dimethyl-N^2-(1-methylpiperidin-4-yl)pyrido[2,3-d]pyrimidine-2,4-diamine]
Emax: 100 to 3000%
EC (100% of 200 uM G418 response): 1 to 10 µM

CNc1nc(N[C@@H]2CCN(C)C2)nc2nc(C)cc(C)c12 [Example 327]
Emax: 100 to 3000%
EC (100% of 200 uM G418 response): 1 to 10 µM

CNc1nc(N[C@H]2CN(C)C[C@@H]2OC(=O)C(C)(C)C)nc2nc3c(c(C)c12)CCC3 [Example 681]
Emax: 100 to 3000%
EC (100% of 200 uM G418 response): 0.1 to 1 µM

CN1CCC(Nc2nc(N)c3cc(C(F)(F)F)cnc3n2)CC1 [Example 19, N^2-(1-methylpiperidin-4-yl)-6-(trifluoromethyl)pyrido[2,3-d]pyrimidine-2,4-diamine]
Emax: 0 to 100%
EC (100% of 200 uM G418 response): > 100 µM

Cc1cc(C)c2c(N)nc(N[C@H]3CCN(C)C3)nc2n1 [Example 15, (S)-5,7-dimethyl-N^2-(1-methylpyrrolidin-3-yl)pyrido[2,3-d]pyrimidine-2,4-diamine]
Emax: 100 to 3000%
EC (100% of 200 uM G418 response): 1 to 10 µM

CN(C)Cc1cccc(-c2ccc3c(N)nc(NC4CCN(C)CC4)nc3n2)c1 [Example 76]
Emax: 100 to 3000%
EC (100% of 200 uM G418 response): 10 to 100 µM

Cc1cc(C)c2c(N)nc(N[C@H]3CCCC[C@@H]3N(C)C)nc2n1 [Example 155]
Emax: 0 to 100%
EC (100% of 200 uM G418 response): > 31.6 µM

CNc1nc(N[C@H]2CN(C)C[C@H]2O)nc2nc(C)c3c(c12)CCC3 [Example 364]
Emax: 100 to 3000%
EC (100% of 200 uM G418 response): 1 to 10 µM

Cc1cc(C)c2c(NCCC(N)=O)nc(NC3CCN(C)CC3)nc2n1 [Example 329]
Emax: 0 to 100%
EC (100% of 200 uM G418 response): > 31.6 µM

COCC1CN(CCNc2nc(N)c3c(C)cc(C)nc3n2)C1 [Example 164]
Emax: 0 to 100%
EC (100% of 200 uM G418 response): > 31.6 µM

Cc1cc(C)c2c(N)nc(NC3CCCN(C)CC3)nc2n1 (stereo not shown) [Example 179]
Emax: 100 to 3000%
EC (100% of 200 uM G418 response): 1 to 10 µM

CN1CCC(Nc2nc(N)c3c(C#N)ccnc3n2)CC1 [Example 250, 4-amino-2-((1-methylpiperidin-4-yl)amino)pyrido[2,3-d]pyrimidine-5-carbonitrile]
Emax: 0 to 100%
EC (100% of 200 uM G418 response): > 100 µM
